{"source": "patent US9879303B2", "about": "“Chromogenic glucuronidase substrates and uses” (Glycosynth Limited, priority 2013, dated 2018)", "tested_on": "E. coli clinical isolates", "assay": "screen of strains in broth medium containing FAC", "assay_type": "cell-based", "set-up": "key to colour: Red, Green, Black or Purple mean strong colour; Red, Green, Black or Purple mean strong colour; Red, Green, Black or Purple mean strong colour; Red, Green, Black or Purple mean strong colour; +/− means less colour than strong; Tr means a trace of colour, less than +/−; — means no colour", "conditions": "for colour: 37° C. 18 hours", "source_text": "In order to obtain a fuller picture of the sensitivity of the substrates, they were screened with 100 different clinical isolates of E. coli in a liquid medium containing FAC. The isolates were chosen at random from the Microbiology Department, Freeman Hospital, Newcastle Upon Tyne, UK. The effectiveness of the new substrates was compared with three other media which all contained indoxyl-β-D-glucuronides. One was a commercial medium, CPS ID 3 (bioMérieux SA, Lyon, France). […] This medium was employed as a control. Among the β-D-glucuronidase producing strains of E. coli there is a large variation in the quantity of the enzyme produced and it is almost certain that the CPS ID 3 medium has been rigorously optimised to allow good growth of all the target organisms and maximum expression of the target enzymes. Therefore, two indoxyl glucuronides, X-β-D-glucuronide CHA salt and Rose-β-D-glucuronide CHA salt were also tested in a simple agar medium to allow a direct comparison of the sensitivity of these Indoxyl glucuronides when used in a medium that has not been optimised for the growth of the target organism. The comparison of the results for Rose-β-D-glucuronide and the CPS ID 3 medium was of particular significance as the commercial medium also uses Rose-β-D-glucuronide for the detection of E. coli. For consistency, the four glucuronides were all chosen as their CHA salts. As already stated, it is not anticipated that the salt form is critical to their performance. Currently. X-β-D-glucuronide is often used as either the CHA salt or the sodium salt. Brenner and colleagues [K. P. Brenner et al, Appl. Environ. Microbiol., 59, 3534-3544, (1993)] found no difference in the performance of the CHA and sodium salt forms with their application using indoxyl-β-D-glucuronide, neither in respect of colour development nor in the recovery of E. coli.\nThe two indoxyl glucuronides used produce insoluble endpoints following hydrolysis, as does the CPS ID 3 medium. It was therefore necessary to test these two substrates on agar plates. In contrast, catechol-β-D-glucuronide (1) and DHN-β-D-glucuronide (2b) give much more soluble endpoints best suited to liquid media and were therefore tested in a broth medium. Each broth was prepared using proteose peptone (Oxoid, Basingstoke, UK) (2 g), NaCl (1 g) and FAC (100 mg) in DI water (180 mL). This mixture was autoclaved and cooled to room temperature before being dispensed into bijoux (100×1.8 mL). Catechol β-D-glucuronide CHA salt (1) or DHN-β-D-glucuronide CHA salt (2b) (60 mg) were each dissolved in water (20 mL) and filtered to sterilize before being aseptically dispensed into successive bijoux (0.2 mL) containing the broth solution. The broth/substrate solutions were then inoculated with bacterial suspensions made up to 0.5 McFarland standard (2 μL per bijoux). X-β-D-glucuronide CHA salt (Glycosynth Ltd, Warrington, UK) (10 mg) was dissolved in NMP (200 μL). Rose-β-D-glucuronide CHA salt (Glycosynth Ltd, Warrington, UK) (20 mg) was dissolved in NMP (200 μL). These solutions were then added to Columbia agar (Oxoid, Basingstoke, UK) (100 mL) and inoculated with bacterial suspensions made up to 0.5 McFarland standard (1 μL). The plates and broths were incubated at 37° C. for 18 hours in air.", "key": {"[1]": {"conditions": "100 E. coli strains after 18 h incubation, broth"}}, "note": "Counter-ions that a name gives are not always drawn.", "data": [{"compound": "O=C(O)C1OC(Oc2cc3ccccc3cc2O)C(O)C(O)C1O", "note": "[Compound 2b, DHN-β-D-Glucuronide CHA Salt]", "values": [{"measurement": "% Sensitivity", "setting": "[1]", "result": 82, "unit": "%"}, {"measurement": "Negative strains", "setting": "[1]", "result": 18}, {"measurement": "Positive strains", "setting": "[1]", "result": 82}, {"measurement": "colour", "setting": "E. coli 260262P, broth", "result": "Purple"}, {"measurement": "colour", "setting": "E. coli 260280Z, broth", "result": "Purple"}, {"measurement": "colour", "setting": "E. coli 260310H, broth", "result": "Purple"}, {"measurement": "colour", "setting": "E. coli 260313A, broth", "result": "—"}, {"measurement": "colour", "setting": "E. coli 260316T, broth", "result": "—"}, {"measurement": "colour", "setting": "E. coli 260327V, broth", "result": "Purple"}, {"measurement": "colour", "setting": "E. coli 260330Y, broth", "result": "Purple"}, {"measurement": "colour", "setting": "E. coli 260333P, broth", "result": "—"}, {"measurement": "colour", "setting": "E. coli 260345F, broth", "result": "Purple"}, {"measurement": "colour", "setting": "E. coli 260348K, broth", "result": "Purple"}, {"measurement": "colour", "setting": "E. coli 260354W, broth", "result": "Purple"}, {"measurement": "colour", "setting": "E. coli 260364H, broth", "result": "—"}, {"measurement": "colour", "setting": "E. coli 260370C, broth", "result": "Purple"}, {"measurement": "colour", "setting": "E. coli 260375E, broth", "result": "Purple"}, {"measurement": "colour", "setting": "E. coli 260390B, broth", "result": "—"}, {"measurement": "colour", "setting": "E. coli 260396Z, broth", "result": "Purple"}, {"measurement": "colour", "setting": "E. coli 260398Q, broth", "result": "Purple"}, {"measurement": "colour", "setting": "E. coli 260400N, broth", "result": "—"}, {"measurement": "colour", "setting": "E. coli 260401Q, broth", "result": "Purple"}, {"measurement": "colour", "setting": "E. coli 260402H, broth", "result": "Purple"}, {"measurement": "colour", "setting": "E. coli 260404W, broth", "result": "Purple"}, {"measurement": "colour", "setting": "E. coli 260405P, broth", "result": "Purple"}, {"measurement": "colour", "setting": "E. coli 260406A, broth", "result": "—"}, {"measurement": "colour", "setting": "E. coli 260406Y, broth", "result": "Purple"}, {"measurement": "colour", "setting": "E. coli 260407F, broth", "result": "Purple"}, {"measurement": "colour", "setting": "E. coli 260408C, broth", "result": "Purple"}, {"measurement": "colour", "setting": "E. coli 260411Z, broth", "result": "Purple"}, {"measurement": "colour", "setting": "E. coli 260412Q, broth", "result": "Purple"}, {"measurement": "colour", "setting": "E. coli 260414H, broth", "result": "Purple"}, {"measurement": "colour", "setting": "E. coli 260415Y, broth", "result": "Purple"}, {"measurement": "colour", "setting": "E. coli 260416W, broth", "result": "Purple"}, {"measurement": "colour", "setting": "E. coli 260417P, broth", "result": "Purple"}, {"measurement": "colour", "setting": "E. coli 260422Y, broth", "result": "Purple"}, {"measurement": "colour", "setting": "E. coli 260424P, broth", "result": "Purple"}, {"measurement": "colour", "setting": "E. coli 260425A, broth", "result": "Purple"}, {"measurement": "colour", "setting": "E. coli 260426F, broth", "result": "Purple"}, {"measurement": "colour", "setting": "E. coli 260428T, broth", "result": "Purple"}, {"measurement": "colour", "setting": "E. coli 260431N, broth", "result": "Purple"}, {"measurement": "colour", "setting": "E. coli 260432E, broth", "result": "Purple"}, {"measurement": "colour", "setting": "E. coli 260433H, broth", "result": "Purple"}, {"measurement": "colour", "setting": "E. coli 260434Y, broth", "result": "Purple"}, {"measurement": "colour", "setting": "E. coli 260435W, broth", "result": "Purple"}, {"measurement": "colour", "setting": "E. coli 260436P, broth", "result": "Purple"}, {"measurement": "colour", "setting": "E. coli 260437A, broth", "result": "—"}, {"measurement": "colour", "setting": "E. coli 260438F, broth", "result": "Purple"}, {"measurement": "colour", "setting": "E. coli 260439C, broth", "result": "Purple"}, {"measurement": "colour", "setting": "E. coli 260440S, broth", "result": "Purple"}, {"measurement": "colour", "setting": "E. coli 260441G, broth", "result": "Purple"}, {"measurement": "colour", "setting": "E. coli 260458Y, broth", "result": "Purple"}, {"measurement": "colour", "setting": "E. coli 260459W, broth", "result": "Purple"}, {"measurement": "colour", "setting": "E. coli 260463D, broth", "result": "Purple"}, {"measurement": "colour", "setting": "E. coli 260464G, broth", "result": "Purple"}, {"measurement": "colour", "setting": "E. coli 260471B, broth", "result": "—"}, {"measurement": "colour", "setting": "E. coli 260478N, broth", "result": "—"}, {"measurement": "colour", "setting": "E. coli 260479Q, broth", "result": "Purple"}, {"measurement": "colour", "setting": "E. coli 260480M, broth", "result": "Purple"}, {"measurement": "colour", "setting": "E. coli 260481J, broth", "result": "Purple"}, {"measurement": "colour", "setting": "E. coli 260483R, broth", "result": "—"}, {"measurement": "colour", "setting": "E. coli 260485D, broth", "result": "Purple"}, {"measurement": "colour", "setting": "E. coli 260486L, broth", "result": "Purple"}, {"measurement": "colour", "setting": "E. coli 260492J, broth", "result": "Purple"}, {"measurement": "colour", "setting": "E. coli 260494B, broth", "result": "Purple"}, {"measurement": "colour", "setting": "E. coli 260495R, broth", "result": "Purple"}, {"measurement": "colour", "setting": "E. coli 260497D, broth", "result": "Purple"}, {"measurement": "colour", "setting": "E. coli 260502G, broth", "result": "Purple"}, {"measurement": "colour", "setting": "E. coli 260503Z, broth", "result": "Purple"}, {"measurement": "colour", "setting": "E. coli 260504N, broth", "result": "Purple"}, {"measurement": "colour", "setting": "E. coli 260505Q, broth", "result": "—"}, {"measurement": "colour", "setting": "E. coli 260506E, broth", "result": "Purple"}, {"measurement": "colour", "setting": "E. coli 260508Y, broth", "result": "Purple"}, {"measurement": "colour", "setting": "E. coli 260509W, broth", "result": "Purple"}, {"measurement": "colour", "setting": "E. coli 260510R, broth", "result": "Purple"}, {"measurement": "colour", "setting": "E. coli 260511X, broth", "result": "Purple"}, {"measurement": "colour", "setting": "E. coli 260514G, broth", "result": "—"}, {"measurement": "colour", "setting": "E. coli 260515Z, broth", "result": "Purple"}, {"measurement": "colour", "setting": "E. coli 260521S, broth", "result": "Purple"}, {"measurement": "colour", "setting": "E. coli 260522Z, broth", "result": "Purple"}, {"measurement": "colour", "setting": "E. coli 260532S, broth", "result": "Purple"}, {"measurement": "colour", "setting": "E. coli 260533G, broth", "result": "Purple"}, {"measurement": "colour", "setting": "E. coli 260536Q, broth", "result": "Purple"}, {"measurement": "colour", "setting": "E. coli 260537E, broth", "result": "—"}, {"measurement": "colour", "setting": "E. coli 260538H, broth", "result": "—"}, {"measurement": "colour", "setting": "E. coli 260539Y, broth", "result": "Purple"}, {"measurement": "colour", "setting": "E. coli 260541R, broth", "result": "Purple"}, {"measurement": "colour", "setting": "E. coli 260545G, broth", "result": "Purple"}, {"measurement": "colour", "setting": "E. coli 260547N, broth", "result": "Purple"}, {"measurement": "colour", "setting": "E. coli 260548Q, broth", "result": "Purple"}, {"measurement": "colour", "setting": "E. coli 260549E, broth", "result": "Purple"}, {"measurement": "colour", "setting": "E. coli 260553X, broth", "result": "—"}, {"measurement": "colour", "setting": "E. coli 260554D, broth", "result": "Purple"}, {"measurement": "colour", "setting": "E. coli 260555L, broth", "result": "Purple"}, {"measurement": "colour", "setting": "E. coli 260563B, broth", "result": "Purple"}, {"measurement": "colour", "setting": "E. coli 260564R, broth", "result": "Purple"}, {"measurement": "colour", "setting": "E. coli 260578D, broth", "result": "—"}, {"measurement": "colour", "setting": "E. coli 2603121P, broth", "result": "—"}, {"measurement": "colour", "setting": "E. coli 2604399E, broth", "result": "Purple"}, {"measurement": "colour", "setting": "E. coli O157 non-toxigenic, broth", "result": "—"}, {"measurement": "colour of positive solutions", "setting": "broth with FAC, in words", "result": "purple solutions"}]}]}
